The text below walks through data of patent US20090233998A1, “Desmosdumotins, the Method for Preparing the Same and Use as Anti-Tumor or Anti-AIDS Agents” (priority 2004, published 2009).

For orientation: LD50 means the dose at which mortality reaches 50%.

Structures are written as SMILES. In brackets after ≈: the same amount, converted by molar mass. Read-outs that look alike come from different tables or passages of the source. Where only a bound is given, the exact number is not on record here.

Data set [1] concerns KB-VIN (vincristine-resistant KB cells, multi-drug resistant expressing P-glycoprotein). The data set can be described thus: in vitro cytotoxicity against human tumor cell replication, KB-VIN. The format is cell-based. As to conditions: for EC50: read-out: ED50 (the source's name). From the text: (§1) Cancer cell used in cytotoxicity evaluation in vitro were all from human, including lung cancer cell line (A549), breast cancer cell line (MCF-7), ovarian cancer cell line (1A9), epidermoid nasopharyngeal carcinoma cell line (KB), vincristine-resistant cells (KB-VIN), melanoma cancer cell line (SK-MEL-2), ileocecal cancer cell line (HCT-8), renal carcinoma cell line (CAKI), bone cancer cell line (HOS), et al. the anti-cancer ability of the compound represented by half-effective amount (ED50). Control drug was V16 (Etoposide).

Data set [2] has as its system 1A9 (human ovarian carcinoma). Put plainly: in vitro cytotoxicity against human tumor cell replication, 1A9. Format: cell-based. As to conditions: for EC50: read-out: ED50 (the source's name).
Excerpt: as §1

In data set [3] the test system is A549 (human lung carcinoma). The data set can be described thus: in vitro cytotoxicity against human tumor cell replication, A549. As to conditions: for EC50: read-out: ED50 (the source's name). Format: cell-based.
Excerpt: as §1

For data set [4], the system named is KB (human epidermoid carcinoma of the nasopharynx). Put plainly: in vitro cytotoxicity against human tumor cell replication, KB. The format is cell-based. As to conditions: for EC50: read-out: ED50 (the source's name).
Excerpt: as §1

In a further data set the test system is human tumor cell lines. Put plainly: in vitro evaluation against a panel of several cancer cell lines. The format is cell-based.
Excerpt: as §1

For data set [5], the system named is MCF-7 (breast cancer cell line). Put plainly: in vitro cytotoxicity against human tumor cell replication, MCF-7. Format: cell-based.
Excerpt: as §1

Data set [6] relates to KB (human epidermoid carcinoma of the nasopharynx). As to conditions: parent KB cell line; background section; cited from earlier work.
In data set [7] the test system is 1A9 (human ovarian carcinoma). As to conditions: IA9 ovarian cancer cell; background section; cited from earlier work.
For data set [8], the system named is KB-VIN (vincristine-resistant KB cells, multi-drug resistant expressing P-glycoprotein). As to conditions: background section; cited from earlier work.
Data set [9] concerns MCF-7 (breast cancer cell line). As to conditions: background section; cited from earlier work.
Another data set has as its system Kunming mice. The data set can be described thus: in vivo. As to conditions: for Death Rate: Kunming, mouse, in vivo, iv, 14 days. The method, then:
(§2) The tumor activity […] testing represented by acute toxicity test and tumor-inhibiting testing of mice S180, Method: LD50 of desmosdumotin C to Kunming mice by vein route was obtained by the general acute toxicity test method. Sarcoma S180 was hypodermic inoculated to mice, drug administrated, compared drug group with control group, inhibition rate was calculated, P value show the statistical difference. […].

A short description of a further data set: in vivo. As to conditions: both sexes, Kunming, mouse, in vivo, Kunming mice, single vein injection, half male/half female. Here is the method: as §2
The subject of another data set is Sarcoma S180. The data set can be described thus: tumor-inhibiting test of mice S180. Format: in vivo, Kunming mice. As to conditions: for Inhibition Rate: S180 tumor growth. The method, then: as §2

Take `COC1=C(C)C(=O)C(=C(O)C=Cc2ccc(Br)cc2)C(=O)C1(C)C` [Compound 2, 2-[1′-Hydroxy-3-(4-bromophenyl)-allylidene]-5-methoxy-4,6,6-trimethylcyclohex-4-ene-1,3-dione]: the EC50 was determined as 4.84 µM in data set [1] (Homo sapiens, KBVIN); 2.8 µM in [2] (Homo sapiens); 3.57 µM in [3] (Homo sapiens); 4.33 µM in [4] (Homo sapiens).
Take `COC1=C(C)C(=O)C(=C(O)C=Cc2ccccc2OC)C(=O)C1(C)C` [Compound 3, 2-[1′-Hydroxy-3-(2-methoxyphenyl)-allylidene]-5-methoxy-4,6,6-trimethylcyclohex-4-ene-1,3-dione]: the EC50 in data set [1] (Homo sapiens, KBVIN) was found to be 8.45 µM; in data set [2] (Homo sapiens), 8.16 µM; in data set [3] (Homo sapiens), 8.74 µM; in [4] (Homo sapiens) it was 10.5 µM. The “activity relative to desmosdumotin C” value with human tumor cell lines (fold of desmosdumotin C) is 4 times.
Turning to `COC1=C(C)C(=O)C(=C(O)C=Cc2cccc(OC)c2)C(=O)C1(C)C` [Compound 4, 2-[1′-Hydroxy-3-(3-methoxyphenyl)-allylidene]-5-methoxy-4,6,6-trimethyl-cyclohex-4-ene-1,3-dione], the EC50 in data set [1] (Homo sapiens, KBVIN) came out at 6.99 µM; in [2] (Homo sapiens) it was 8.45 µM; in data set [3] (Homo sapiens) it was 8.16 µM; in [4] (Homo sapiens), 9.62 µM. The ED50 in data set [2] is 0.7 µg/mL (≈ 2.04 µM). In the data set on human tumor cell lines (versus desmosdumotin C), the “anti-tumor activity compared with the leading compound” value is given as “more significant anti-tumor activity than the leading compound”.
Regarding `COC1=C(C)C(=O)C(=C(O)C=Cc2ccc(OC)cc2)C(=O)C1(C)C` [Compound 5, 2-[1′-Hydroxy-3-(4-methoxyphenyl)-allylidene]-5-methoxy-4,6,6-trimethyl-cyclohex-4-ene-1,3-dione], the EC50 stood at 8.16 µM in data set [1] (Homo sapiens, KBVIN); 7.28 µM in data set [2] (Homo sapiens); 6.99 µM in data set [3] (Homo sapiens); 9.62 µM in [4] (Homo sapiens).
As to `COC1=C(C)C(=O)C(=C(O)C=Cc2ccc(O)cc2)C(=O)C1(C)C` [Compound 6, 2-[1′-Hydroxy-3-(4-hydroxyphenyl)-allylidene]-5-methoxy-4,6,6-trimethyl-cyclohex-4-ene-1,3-dione], the EC50 stood at 11.6 µM in data set [1] (Homo sapiens, KBVIN); 8.86 µM in data set [2] (Homo sapiens); 9.48 µM in data set [3] (Homo sapiens); 11.6 µM in data set [4] (Homo sapiens).
Take `COC1=C(C)C(=O)C(=C(O)C=Cc2ccco2)C(=O)C1(C)C` [Compound 7, 2-(3′-Furan-2″-yl-1′-hydroxy-allylidene)-5-methoxy-4,6,6-trimethyl-cyclohex-4-ene-1,3-dione]: the EC50 in data set [1] turned out to be 29 µM; in data set [2], 26.1 µM; in data set [3], 33 µM; in data set [4] it was 32.7 µM.
The corresponding values for `COC1=C(C)C(=O)C(=C(O)C=Cc2cccs2)C(=O)C1(C)C` [Compound 8, 2-(1′-Hydroxy-3′-thiophen-2″-yl-allylidene)-5-methoxy-4,6,6-trimethyl-cyclohex-4-ene-1,3-dione] are 10.7 µM, 12.5 µM, 14.1 µM and 17.2 µM.
As to `COC1=C(C)C(=O)C(=C(O)C=Cc2nccs2)C(=O)C1(C)C` [Compound 9], the EC50 was 9.37 µM in data set [1], 10.9 µM in [2], 10.9 µM in data set [3] and 13.4 µM in data set [4].
For `CC1=C(O)C2=C(OC(c3ccccc3)CC2=O)C(C)(C)C1=O` (stereo not drawn) [Compound 11, 7-hydroxyl-6,8,8-trimethyl-2-phenyl-2,3-dihydrogen-8H-chromene-4,5-dione], the ED50 in data set [1] is 7.5 µg/mL (≈ 25.1 µM); in data set [2], 8.0 µg/mL (≈ 26.8 µM); in data set [3], 13.5 µg/mL (≈ 45.3 µM); in data set [5], greater than 5 µg/mL; in data set [4], 10.5 µg/mL (≈ 35.2 µM).
The like results for `CC1=C(O)C(C)(C)C(=O)/C(=C(O)\C=C\c2ccccc2)C1=O` [Compound 12, 2-[(1′-hydroxy-2′-ene-3′-phenyl)propenylene]-5-hydroxy-4,6,6-trimethyl-1,3-cyclohexene(4,5)-dione] were, in that order, 6.5 µg/mL (≈ 21.8 µM), 8.0 µg/mL (≈ 26.8 µM), 9.0 µg/mL (≈ 30.2 µM), greater than 5 µg/mL and 10.5 µg/mL (≈ 35.2 µM).
The like results for `COC1=C(C)C(=O)C(=C(O)C=Cc2ccccc2)C(=O)C1(C)C` [Compound 13, 2-[(1′-hydroxy-2′-ene-3′-phenyl)propenylene)-5-methoxy-4,6,6-trimethyl-1,3-cyclohexene (4,5)-diketone] were, in that order, 2.9 µg/mL (≈ 9.28 µM), 3.63 µg/mL (≈ 11.6 µM), greater than 5 µg/mL, greater than 5 µg/mL and 4.1 µg/mL (≈ 13.1 µM).
Consider `COC1=CC(=O)c2c(oc(-c3ccccc3)cc2=O)C1(C)C` [Compound 14, 7-methoxy-8,8-dimethyl-2-phenyl-8H-chromene-4,5-dione], for which the ED50 in data set [2] came out at 0.7 µg/mL (≈ 2.36 µM); in [3] it was 2.0 µg/mL (≈ 6.75 µM); in data set [4], 1.8 µg/mL (≈ 6.07 µM).
For the compound `CC1=C(O)C(C)(C)c2oc(-c3ccccc3)cc(=O)c2C1=O` [Desmosdumotin B, 7-hydroxyl-6,8,8-trimethyl-2-phenyl-8H-chromene-4,5-dione], the ED50 in data set [1] was 2.0 µg/mL (≈ 6.75 µM); in [2], 36.0 µg/mL (≈ 121 µM); in [3], 28.0 µg/mL (≈ 94.5 µM); in data set [5] it was greater than 5 µg/mL; in data set [4], greater than 40 µg/mL.
In the case of `COC1=C(C)C(=O)/C(=C(O)/C=C/c2ccccc2)C(=O)C1(C)C` [Desmosdumotin C, 2-[(1′-hydroxy-2′-ene-3′-phenyl)propenylene]-5-methoxy-4,6,6-trimethyl-1,3-cyclohexene (4,5)-dione], the EC50 in [1] (Homo sapiens, KBVIN) is 17.9 µM; in data set [2] (Homo sapiens), 12.8 µM; in data set [5] (Homo sapiens, MCF7, read-out: ED50 (the source's name)) it was 12.8 µM; in data set [4] (Homo sapiens) it was 20.8 µM. Also, the ED50 was less than 6.5 µg/mL in data set [6], less than 4.0 µg/mL in data set [7], less than 5.6 µg/mL in data set [8] and less than 3.8 µg/mL in data set [9]. The LD50 in the data set with Kunming mice (Kunming mice, single vein injection, half male/half female) was 46.0 mg/kg; in “in vivo” (read-out: LD50) it was greater than 46 mg/kg; in “in vivo” (read-out: LD50 (95% CL)) it was 39.8 to 53.1 mg/kg. Further, the “Death Rate” value was 0% with Kunming mice (both, 32.8 mg/kg); 40% in the data set with Kunming mice (both, 40.96 mg/kg); 70% with Kunming mice (both, 51.2 mg/kg); 90% with Kunming mice (both, 64 mg/kg); 100% with Kunming mice (both, 80 mg/kg); 0% with Kunming mice (female, 32.8 mg/kg). Moreover, the “Death Rate” value is recorded as 40% with Kunming mice (female, 40.96 mg/kg); 80% in the data set on Kunming mice (female, 51.2 mg/kg); 80% in the data set with Kunming mice (female, 64 mg/kg); 100% in the data set with Kunming mice (female, 80 mg/kg); 0% with Kunming mice (male, 32.8 mg/kg); 40% in the data set with Kunming mice (male, 40.96 mg/kg). In addition, the “Death Rate” value in the data set with Kunming mice (male, 51.2 mg/kg) came to 60%; in the data set on Kunming mice (male, 64 mg/kg), 100%; in the data set with Kunming mice (male, 80 mg/kg), 100%. The “Tumor Weight X ± SD” value with Sarcoma S180 (S180, 2.5 mg/kg iv × 10qd) is recorded as 1.99 ± 0.18; in the data set on Sarcoma S180 (S180, 5 mg/kg iv × 10qd) it was 1.62 ± 0.22; in the data set on Sarcoma S180 (S180, 10 mg/kg iv × 10qd), 1.51 ± 0.21. Besides, the “Inhibition Rate” value in the data set with Sarcoma S180 (2.5 mg/kg iv × 10qd) is recorded as 30.18%; in the data set on Sarcoma S180 (5 mg/kg iv × 10qd), 43.16%; in the data set on Sarcoma S180 (10 mg/kg iv × 10qd), 47.02%.
